#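 Cells were grown in 96-well plates and exposed to each compound for 48 hours at five concentrations; endpoints were interpolated linearly between bracketing concentrations, or set to the highest concentration if not reached. TGI: total growth inhibition.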
# Assays:
# Assay in all cases: growth of human tumour cells (NCI), 48 h
# [1] = system: MALME-3M melanoma
# [2] = system: HT29 colon
# [3] = system: SNB-75 CNS
# [4] = system: UACC-62 melanoma
# [5] = system: U251 CNS
# [6] = system: MOLT-4 leukemia
# [7] = system: A498 renal
# [8] = system: KM12 colon
# [9] = system: HS 578T breast
# [10] = system: SF-539 CNS
# [11] = system: TK-10 renal
# [12] = system: M14 melanoma
# [13] = system: DU-145 prostate
# [14] = system: OVCAR-5 ovarian
# [15] = system: NCI-H226 lung
# [16] = system: MDA-MB-435
# [17] = system: RXF 393 renal
# [18] = system: SK-MEL-5 melanoma
# [19] = system: IGROV1 ovarian
# [20] = system: 786-0 renal
# [21] = system: OVCAR-3 ovarian
# [22] = system: HCC-2998 colon
# [23] = system: SW-620 colon
# [24] = system: HOP-62 NSCLC
# [25] = system: SR leukemia
# [26] = system: SF-295 CNS
# [27] = system: SK-OV-3 ovarian
# [28] = system: UO-31 renal
# [29] = system: ACHN renal
# [30] = system: SK-MEL-2 melanoma
# [31] = system: HCT-15 colon
# [32] = system: HCT-116 colon
# [33] = system: CAKI-1 renal
# [34] = system: A549 NSCLC
# [35] = system: MCF7 breast
# [36] = system: UACC-257 melanoma
# [37] = system: BT-549 breast
# [38] = system: PC-3 prostate
# [39] = system: SF-268 CNS
# [40] = system: NCI-H460 lung
# [41] = system: COLO 205 colon
# [42] = system: NCI/ADR-RES ovarian
# [43] = system: SK-MEL-28 melanoma
# [44] = system: T-47D breast
# [45] = system: CCRF-CEM leukemia
# [46] = system: EKVX NSCLC
# [47] = system: MDA-N
# [48] = system: OVCAR-4 ovarian
# [49] = system: HOP-92 NSCLC
# [50] = system: SNB-19 CNS
# [51] = system: OVCAR-8 ovarian
# [52] = system: NCI-H23 lung
# [53] = system: SN12C renal
# [54] = system: MDA-MB-231 breast
# [55] = system: HL-60(TB) leukemia
# [56] = system: NCI-H522 lung
# [57] = system: RPMI-8226 leukemia
# [58] = system: K-562 leukemia
# [59] = system: LOX IMVI melanoma
smiles,measurement,setting,value
Cc1cc(=O)[nH]c(S(=O)(=O)NC(=S)Nc2ccc(Cl)cc2)n1,TGI,[1],> 100 µM
same,TGI,[2],> 100 µM
same,TGI,[3],> 100 µM
same,TGI,[4],> 100 µM
same,TGI,[5],> 100 µM
same,TGI,[6],> 100 µM
same,TGI,[7],> 100 µM
same,TGI,[8],> 100 µM
same,TGI,[9],> 100 µM
same,TGI,[10],> 100 µM
same,TGI,[11],> 100 µM
same,TGI,[12],> 100 µM
same,TGI,[13],> 100 µM
same,TGI,[14],> 100 µM
same,TGI,[15],> 100 µM
same,TGI,[16],> 100 µM
same,TGI,[17],> 100 µM
same,TGI,[18],> 100 µM
same,TGI,[19],> 100 µM
same,TGI,[20],> 100 µM
same,TGI,[21],> 100 µM
same,TGI,[22],> 100 µM
same,TGI,[23],> 100 µM
same,TGI,[24],> 100 µM
same,TGI,[25],> 100 µM
same,TGI,[26],> 100 µM
same,TGI,[27],> 100 µM
same,TGI,[28],> 100 µM
same,TGI,[29],> 100 µM
same,TGI,[30],> 100 µM
same,TGI,[31],> 100 µM
same,TGI,[32],> 100 µM
same,TGI,[33],> 100 µM
same,TGI,[34],> 100 µM
same,TGI,[35],> 100 µM
same,TGI,[36],> 100 µM
same,TGI,[37],> 100 µM
same,TGI,[38],> 100 µM
same,TGI,[39],> 100 µM
same,TGI,[40],> 100 µM
same,TGI,[41],> 100 µM
same,TGI,[42],> 100 µM
same,TGI,[43],> 100 µM
same,TGI,[44],> 100 µM
same,TGI,[45],> 100 µM
same,TGI,[46],> 100 µM
same,TGI,[47],> 100 µM
same,TGI,[48],> 100 µM
same,TGI,[49],> 100 µM
same,TGI,[50],> 100 µM
same,TGI,[51],> 100 µM
same,TGI,[52],> 100 µM
same,TGI,[53],> 100 µM
same,TGI,[54],> 100 µM
same,TGI,[55],> 100 µM
same,TGI,[56],84.6 µM
same,TGI,[57],> 100 µM
C=C1CC2(CCOc3ccc(Cl)cc32)OC1=O (configuration not stated),TGI,[2],24.2 µM
same,TGI,[3],16.3 µM
same,TGI,[4],26.1 µM
same,TGI,[5],22.5 µM
same,TGI,[6],8.29 µM
same,TGI,[7],30.2 µM
same,TGI,[8],28 µM
same,TGI,[9],23.4 µM
same,TGI,[10],0.976 µM
same,TGI,[11],17.5 µM
same,TGI,[12],11.1 µM
same,TGI,[13],27.4 µM
same,TGI,[14],23.4 µM
same,TGI,[15],11.2 µM
same,TGI,[16],14.1 µM
same,TGI,[58],> 31.5 µM
same,TGI,[17],10.7 µM
same,TGI,[18],14.2 µM
same,TGI,[19],21.2 µM
same,TGI,[20],7.13 µM
same,TGI,[21],7.52 µM
same,TGI,[22],40.3 µM
same,TGI,[23],5.44 µM
same,TGI,[24],22.7 µM
same,TGI,[25],12.2 µM
same,TGI,[26],21.5 µM
same,TGI,[27],26.2 µM
same,TGI,[28],11.2 µM
same,TGI,[29],15.4 µM
same,TGI,[30],6.29 µM
same,TGI,[31],4.26 µM
same,TGI,[32],6.98 µM
same,TGI,[59],8.88 µM
same,TGI,[33],15.4 µM
same,TGI,[34],29.3 µM
same,TGI,[35],6.16 µM
same,TGI,[36],20.1 µM
same,TGI,[37],2.75 µM
same,TGI,[38],10.6 µM
same,TGI,[39],16.1 µM
same,TGI,[40],12.6 µM
same,TGI,[41],6.16 µM
same,TGI,[42],24.6 µM
same,TGI,[43],23.3 µM
same,TGI,[44],32.3 µM
same,TGI,[45],53 µM
same,TGI,[46],21.5 µM
same,TGI,[47],17.9 µM
same,TGI,[48],4.33 µM
same,TGI,[49],12.4 µM
same,TGI,[50],32.6 µM
same,TGI,[51],16.5 µM
same,TGI,[52],19.5 µM
same,TGI,[53],22.1 µM
same,TGI,[54],20.1 µM
same,TGI,[55],8.84 µM
same,TGI,[56],3.42 µM
same,TGI,[57],9.35 µM
COC(=O)c1cnc(Cl)c([N+](=O)[O-])c1,TGI,[2],32.6 µM
same,TGI,[3],34.8 µM
same,TGI,[4],32.1 µM
same,TGI,[5],4.23 µM
same,TGI,[7],40 µM
same,TGI,[8],35 µM
same,TGI,[9],76.4 µM
same,TGI,[10],32.1 µM
same,TGI,[11],30.3 µM
same,TGI,[12],27 µM
same,TGI,[13],21.3 µM
same,TGI,[14],32 µM
same,TGI,[15],36.5 µM
same,TGI,[16],19.4 µM
same,TGI,[58],4.8 µM
same,TGI,[17],25.1 µM
same,TGI,[18],27.2 µM
same,TGI,[19],8.1 µM
same,TGI,[20],11.2 µM
same,TGI,[21],28.7 µM
same,TGI,[22],21.5 µM
same,TGI,[23],4.78 µM
same,TGI,[24],36.5 µM
same,TGI,[25],4.24 µM
same,TGI,[26],33.5 µM
same,TGI,[27],33.8 µM
same,TGI,[28],3.55 µM
same,TGI,[29],25.1 µM
same,TGI,[30],31.5 µM
same,TGI,[31],4.21 µM
same,TGI,[32],8.77 µM
same,TGI,[59],3.68 µM
same,TGI,[33],25.7 µM
same,TGI,[34],41.6 µM
same,TGI,[35],4.34 µM
same,TGI,[36],20.3 µM
same,TGI,[37],32.3 µM
same,TGI,[38],22.6 µM
same,TGI,[39],7.6 µM
same,TGI,[40],31.5 µM
same,TGI,[41],12.2 µM
same,TGI,[42],68.3 µM
same,TGI,[43],36 µM
same,TGI,[44],4.68 µM
same,TGI,[45],5.1 µM
same,TGI,[46],3.28 µM
same,TGI,[47],20.1 µM
same,TGI,[48],36.6 µM
same,TGI,[49],4.25 µM
same,TGI,[50],32.4 µM
same,TGI,[51],3.95 µM
same,TGI,[52],35.2 µM
same,TGI,[53],25.8 µM
same,TGI,[54],30.1 µM
same,TGI,[55],5.73 µM
same,TGI,[56],3.28 µM
same,TGI,[57],5.3 µM
